Drawing on patent publication US10052306B2 (LUC THERAPEUTICS, INC., priority 2013, dated 2018), this text covers IC50 for 32 compounds.

The experiment concerns the target NR1/NR2B (Homo sapiens (Human), UniProt Q05586+Q13224). The experiment in a line: Cell assay: FDSS Ca2+ influx inhibition in HEK293 cells expressing NR1/NR2B.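 Also: Fluo-8 Ca2+ signal read on Hamamatsu FDSS 6000 after glutamate, glycine and Ca2+ challenge following 10 min compound preincubation, end/baseline fluorescence ratio compared with MK801 control.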 To be noted: Ca2+ influx.
[1] abbreviates: NR2B NAM IC50, HEK293 cells expressing NR1/NR2B.
The mark [2] stands for this setting: Binned Activity, HEK293 cells expressing NR1/NR2B, binned NR2B NAM IC50.

One may read the IC50 as the concentration at which inhibition is half-maximal.

Sequence of NR1/NR2B (Q13224 27-1484, other chains not shown): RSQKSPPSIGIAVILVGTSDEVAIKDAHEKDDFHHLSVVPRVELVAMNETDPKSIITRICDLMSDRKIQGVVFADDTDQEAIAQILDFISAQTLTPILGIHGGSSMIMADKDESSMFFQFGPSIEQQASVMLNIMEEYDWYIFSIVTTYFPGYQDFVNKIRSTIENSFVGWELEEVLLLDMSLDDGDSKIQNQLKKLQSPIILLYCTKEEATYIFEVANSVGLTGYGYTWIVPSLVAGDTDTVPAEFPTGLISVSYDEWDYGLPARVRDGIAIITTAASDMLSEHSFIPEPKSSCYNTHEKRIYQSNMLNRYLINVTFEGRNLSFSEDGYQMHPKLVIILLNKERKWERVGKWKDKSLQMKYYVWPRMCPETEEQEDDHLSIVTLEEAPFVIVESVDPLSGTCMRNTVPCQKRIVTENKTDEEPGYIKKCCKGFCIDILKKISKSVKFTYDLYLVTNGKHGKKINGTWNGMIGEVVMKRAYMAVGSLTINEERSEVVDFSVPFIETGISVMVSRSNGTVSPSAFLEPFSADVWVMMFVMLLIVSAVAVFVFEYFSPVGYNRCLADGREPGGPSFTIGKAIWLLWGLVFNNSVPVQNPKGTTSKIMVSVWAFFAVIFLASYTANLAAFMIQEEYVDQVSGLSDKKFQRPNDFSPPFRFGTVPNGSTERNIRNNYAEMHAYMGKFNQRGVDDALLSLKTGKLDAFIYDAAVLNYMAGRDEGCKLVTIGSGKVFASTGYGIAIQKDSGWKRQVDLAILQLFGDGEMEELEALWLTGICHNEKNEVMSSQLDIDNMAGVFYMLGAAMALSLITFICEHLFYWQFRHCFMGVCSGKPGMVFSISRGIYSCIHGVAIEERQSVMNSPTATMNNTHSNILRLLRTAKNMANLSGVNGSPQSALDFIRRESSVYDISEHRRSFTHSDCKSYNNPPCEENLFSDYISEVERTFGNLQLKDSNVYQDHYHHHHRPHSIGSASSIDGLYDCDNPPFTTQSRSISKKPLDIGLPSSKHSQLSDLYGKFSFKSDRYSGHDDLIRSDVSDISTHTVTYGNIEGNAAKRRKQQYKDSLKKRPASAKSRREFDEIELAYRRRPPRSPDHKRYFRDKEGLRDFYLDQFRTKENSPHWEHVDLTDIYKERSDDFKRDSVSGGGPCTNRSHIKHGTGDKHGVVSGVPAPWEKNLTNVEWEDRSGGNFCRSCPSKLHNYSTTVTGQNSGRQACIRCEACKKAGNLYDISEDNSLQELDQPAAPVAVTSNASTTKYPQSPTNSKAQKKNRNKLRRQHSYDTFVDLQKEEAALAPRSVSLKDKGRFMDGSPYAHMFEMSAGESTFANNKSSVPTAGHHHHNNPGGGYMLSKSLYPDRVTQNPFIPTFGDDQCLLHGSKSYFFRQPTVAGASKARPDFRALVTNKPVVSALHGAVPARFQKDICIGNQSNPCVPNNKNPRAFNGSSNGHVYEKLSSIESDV
Procedure: Cell Culture and plating: HEK293 cells expressing NR1/NR2B (Chantest, Cleveland, Ohio) were grown to 70-80% confluency as an adherent monolayer in standard tissue culture flasks at 37° C., 5% CO2 per supplier's instructions. NR2B expression was induced by incubation with 0.3-0.4 μg/ml tetracycline in the presence of 4 mM ARL-15896 for 18-24 hours under the same growth conditions, then transferred to 30° C. for another 3-5 hours.
After induction, cell culture medium was removed and cells were rinsed once with Ca^2+ and Mg^2+-free Dulbecco's phosphate buffered saline. Cells were then removed from the flask using TrypLE™ Express (Life Technologies) according to the manufacturer's instructions and collected to 50 ml centrifuge tubes. Following two washes in Ca^2+/Mg^2+-free HBSS with 20 mM HEPES (HHnoCa), cells were counted and viability assessed using trypan blue. To load cells with Ca^2+-sensitive dye, they were resuspended in fluo-8 plus Component B (AAT Bioquest Products) diluted in HHnoCa and incubated 15 minutes at 37° C., followed by 30 minutes at room temp (in dark). Cells were then washed and resuspended in HHnoCa to remove extracellular dye and plated in 384-well plates (Falcon, uncoated) at 20,000-30,000 cells/well in a final volume of 25 μl/well.
FDSS Assay: To each well of the plate, 10 μL test compound, control (MK801) or HHnoCa buffer was added to a final concentration of 10 μM with a final concentration of DMSO of 0.1%. Following 10 minutes pre-incubation in the dark, plates are loaded onto the Hamamatsu FDSS 6000. After collecting baseline fluorescence images, 3 μM glutamate, 3 glycine, and 1 mM Ca^2+ in HHnoCa buffer is added to each well, and Ca^2+ is recorded for 3 minutes. Data were processed by computing ratio of fluorescence at the end of data collection to baseline fluorescence to assess degree of Ca′ influx inhibition relative to that observed in MK801.

`Oc1ccc(C(O)CN2C[C@@H]3C[C@@](O)(Cc4ccccn4)C[C@@H]3C2)cc1` (mixture of isomers) [Example 232, rac-(3aR,5r,6aS)-2-(2-hydroxy-2-(4-hydroxyphenyl)ethyl)-5-(pyridin-2-ylmethyl)octahydrocyclo-penta[c]pyrrol-5-ol] had an IC50 under setting [1] of 669 nM.

Under setting [1], `CO[C@@]1(Cc2ccccc2)C[C@H]2CN(CC(O)c3ccc(O)cn3)C[C@H]2C1` (mixture of isomers) [Example 177, rac-6-(2-((3aR,5r,6aS)-5-benzyl-5-methoxyhexahydrocyclo-penta[c]pyrrol-2(1H)-yl)-1-hydroxyethyl)pyridin-3-ol] displayed an IC50 of 31.6 nM.

`Oc1ccc(C(O)CN2C[C@@H]3C[C@@](O)(Cc4ccc(C(F)(F)F)cc4)C[C@@H]3C2)nc1` (mixture of isomers) [Example 217, rac-6-{2-[(3aR,5R,6aS)-5-hydroxy-5-{[4-(trifluoromethyl)phenyl]methyl}-octahydrocyclopenta[c]pyrrol-2-yl]-1-hydroxyethyl}pyridin-3-ol] had a half-maximal inhibitory concentration (IC50) under setting [1] of 36 nM.

In turn, `Oc1ccc(C(O)CN2C[C@H]3C[C@@H](Cc4ccccc4)C[C@H]3C2)cc1F` (mixture of isomers) [Example 301, rac-4-{2-[(3aR,5S,6aS)-5-benzyl-octahydrocyclopenta[c]pyrrol-2-yl]-1-hydroxyethyl}-2-fluorophenol] gave an IC50 under setting [1] of 12.2 nM.

Take `COc1cccc(NC(=O)N2C[C@@H]3C[C@@](O)(c4ccc(F)cc4)C[C@@H]3C2)c1` [Example 37]: the IC50 under setting [2] was greater than 10000 nM.

As to `COc1cccc([C@]2(O)C[C@H]3CN(C(=O)Nc4ccc(C)cc4)C[C@H]3C2)c1` [Example 14], the IC50 was greater than 10000 nM under setting [2] and no less than 10000 nM under setting [1].

As to `Oc1ccc(C(O)CN2C[C@@H]3C[C@@](O)(Cc4ccccc4)C[C@@H]3C2)nc1F` (mixture of isomers) [Example 191, rac-(3aR,5r,6aS)-5-benzyl-2-(2-(6-fluoro-5-hydroxypyridin-2-yl)-2-hydroxyethyl)octahydro-cyclopenta[c]pyrrol-5-ol], under setting [1], the IC50 was found to be 171 nM.

As to `CC(=O)Nc1ccc(C(O)CN2C[C@@H]3C[C@@](O)(Cc4ccccc4)C[C@@H]3C2)cn1` (mixture of isomers) [Example 283, rac-N-(5-(2-((3aR,5r,6aS)-5-benzyl-5-hydroxyhexahydrocyclo-penta[c]pyrrol-2(1H)-yl)-1-hydroxyethyl)pyridin-2-yl)acetamide], the half-inhibitory concentration (IC50) runs as follows: under setting [2], greater than 10000 nM; under setting [1], no less than 10000 nM.

With `OC(CN1C[C@@H]2C[C@@](O)(Cc3ccccc3)C[C@@H]2C1)c1ccc(Cl)cc1Cl` (mixture of isomers) [Example 287, rac-(3aR,5r,6aS)-5-benzyl-2-(2-(2,4-dichlorophenyl)-2-hydroxyethyl)octahydro-cyclopenta[c]pyrrol-5-ol], the IC50 is, setting by setting: under setting [2], greater than 10000 nM; under setting [1], no less than 10000 nM.

Take `COc1cccc(C[C@]2(O)C[C@H]3CN(CC(O)c4ccc(O)c(F)n4)C[C@H]3C2)c1` (mixture of isomers) [Example 201, rac-(3aR,5r,6aS)-2-(2-(6-fluoro-5-hydroxypyridin-2-yl)-2-hydroxyethyl)-5-(3-methoxy-benzyl)octahydro-cyclopenta[c]pyrrol-5-ol]: the concentration for half-maximal inhibition (IC50) under setting [1] is 382 nM.

Compound `CO[C@@]1(Cc2ccccc2)C[C@H]2CN(CC(O)c3ccc(O)c(F)c3)C[C@H]2C1` (mixture of isomers) [Example 175, rac-4-(2-((3aR,5r,6aS)-5-benzyl-5-methoxyhexahydrocyclo-penta[c]pyrrol-2(1H)-yl)-1-hydroxyethyl)-2-fluorophenol] displayed an IC50 under setting [1] of 32.4 nM.

Take `CC(C(O)c1ccc(O)cc1)N1C[C@@H]2C[C@](F)(Cc3ccccc3)C[C@@H]2C1` (mixture of isomers) [Example 318, rac-4-(2-((3aR,5s,6aS)-5-benzyl-5-fluoro-hexahydrocyclopen-ta[c]pyrrol-2(1H)-yl)-1-hydroxypropyl)phenol]: inhibition under setting [1] was half-maximal at 12800 nM (IC50).

Consider `Oc1ccc(C(O)CN2C[C@H]3CN(Cc4ccccc4)C[C@H]3C2)cc1F` (mixture of isomers) [Example 341, rac-4-(2-(5-benzylhexahydropyrrolo [3,4-c]pyrrol-2(1H)-yl)-1-hydroxyethyl)-2-fluorophenol], for which the concentration for half-maximal inhibition (IC50) is, setting by setting: under setting [2], less than 100 nM; under setting [1], 74.3 nM.

`O=c1[nH]c2ccc(C(O)CN3C[C@@H]4C[C@@](O)(Cc5ccccc5)C[C@@H]4C3)cc2o1` (mixture of isomers) [Example 154, rac-6-(2-((3aR,5r,6aS)-5-benzyl-5-hydroxyhexahydrocyclo-penta[c]pyrrol-2(1H)-yl)-1-hydroxyethyl)benzo[d] oxazol-2(3H)-one] yielded an IC50 under setting [1] of 52.4 nM.

In the case of `COc1cccc([C@]2(O)C[C@H]3CN(CC(O)c4ccccc4)C[C@H]3C2)c1` (mixture of isomers) [Example 60, rac-2-(2-hydroxy-2-phenylethyl)-5-(3-methoxyphenyl)-octahydrocyclopenta[c] pyrrol-5-ol], the concentration for half-maximal inhibition (IC50) is, setting by setting: under setting [2], greater than 10000 nM; under setting [1], no less than 10000 nM.

For the compound `Oc1ccc(C(O)CN2C[C@@H]3C[C@@](O)(Cc4ccc(C(F)(F)F)cc4)C[C@@H]3C2)cc1` (mixture of isomers) [Example 224, rac-(3aR,5R,6aS)-2-[2-hydroxy-2-(4-hydroxyphenyl)ethyl]-5-{[4-(trifluoromethyl)phenyl]methyl}-octahydrocyclopenta[c] pyrrol-5-ol], inhibition under setting [1] was half-maximal at 84.8 nM (IC50).

As to `OC(CN1C[C@@H]2C[C@@](O)(c3ccccc3)C[C@@H]2C1)c1ccccc1` (mixture of isomers) [Example 58, rac-2-(2-hydroxy-2-phenylethyl)-5-phenyloctahydrocyclo-penta[c]pyrrol-5-ol], the concentration for half-maximal inhibition (IC50) runs as follows: under setting [2], greater than 10000 nM; under setting [1], no less than 10000 nM.

With `Oc1ccc(C(O)CN2C[C@H]3C[C@@H](Cc4ccccc4)C[C@H]3C2)cc1` (mixture of isomers) [Example 304, rac-4-{2-[(3aR,5S,6aS)-5-benzyl-octahydrocyclopenta[c]pyrrol-2-yl]-1-hydroxyethyl}phenol], the IC50 is less than 100 nM under setting [2] and 16.8 nM under setting [1].

The compound `Oc1ccc(C(O)CN2C[C@@H]3C[C@@](O)(Cc4ccccc4F)C[C@@H]3C2)cc1` (mixture of isomers) [Example 229, rac-(3aR,5r,6aS)-5-(2-fluorobenzyl)-2-(2-hydroxy-2-(4-hy-droxyphenyl)ethyl)octa-hydrocyclopenta[c] pyrrol-5-ol] yielded an IC50 under setting [2] of less than 100 nM and an IC50 under setting [1] of 15.5 nM.

Turning to `COc1cccc([C@]2(O)C[C@H]3CN(C(=O)Nc4ccc(Cl)c(C(F)(F)F)c4)C[C@H]3C2)c1` [Example 34, N-[4-chloro-3-(trifluoromethyl)phenyl]-5-hydroxy-5-(3-methoxyphenyl)-octahydrocyclopenta[c] pyrrole-2-carboxamide], the IC50 under setting [2] was greater than 10000 nM.

For `C[C@@H](NC(=O)N1C[C@@H]2C[C@@](O)(c3ccccc3)C[C@@H]2C1)c1ccc(Cl)cc1` [Example 20, N-[(1R)-1-(4-chlorophenyl)ethyl]-5-hydroxy-5-phenyl-octahydrocyclopenta[c] pyrrole-2-carboxamide], the IC50 under setting [2] was greater than 10000 nM.

Under setting [1], `O=C1CCc2cc(C(O)CN3C[C@@H]4C[C@@](O)(Cc5ccccc5)C[C@@H]4C3)ccc2N1` (mixture of isomers) [Example 153, rac-6-(2-((3aR,5r,6aS)-5-benzyl-5-hydroxyhexahydrocyclo-penta[c]pyrrol-2(1H)-yl)-1-hydroxyethyl)-3,4-dihydroquinolin-2(1H)-one] yielded a half-inhibitory concentration (IC50) of 40.2 nM.

On to `Oc1ccc(C(O)CN2C[C@@H]3C[C@@](O)(Cc4ccccc4)C[C@@H]3C2)cc1` (mixture of isomers) [Example 131, rac-(3aR,5r,6aS)-5-benzyl-2-(2-hydroxy-2-(4-hydroxyphenyl)ethyl)octa-hydrocyclopenta[c]pyrrol-5-ol], for which the IC50 under setting [2] was less than 100 nM and the half-maximal inhibitory concentration (IC50) under setting [1] came to 25.5 nM.

As for `COc1cccc(C(O)CN2C[C@@H]3C[C@@](O)(c4cccc(OC)c4)C[C@@H]3C2)c1` (mixture of isomers) [Example 77, rac-2-[2-hydroxy-2-(3-methoxyphenyl)ethyl]-5-(3-methoxyphenyl)-octahydrocyclopenta[c] pyrrol-5-ol], the half-inhibitory concentration (IC50) by setting is: under setting [2], greater than 10000 nM; under setting [1], no less than 10000 nM.

For `Cc1ccccc1[C@]1(O)C[C@H]2CN(C(=O)Nc3ccc(F)cc3)C[C@H]2C1` [Example 13], the IC50 was greater than 10000 nM under setting [2] and no less than 10000 nM under setting [1].

For the compound `Oc1cnc(C(O)CN2C[C@@H]3C[C@@](O)(Cc4ccccc4)C[C@@H]3C2)cn1` (mixture of isomers) [Example 188, rac-(3aR,5r,6aS)-5-benzyl-2-(2-hydroxy-2-(5-hydroxypyrazin-2-yl)ethyl)octahydrocyclo-penta[c]pyrrol-5-ol], the IC50 was greater than 10000 nM under setting [2] and no less than 10000 nM under setting [1].

Turning to `Cc1ccccc1C[C@]1(O)C[C@H]2CN(CC(O)c3ccc(O)cc3)C[C@H]2C1` (mixture of isomers) [Example 185, rac-(3aR,5r,6aS)-2-(2-hydroxy-2-(4-hydroxyphenyl)ethyl)-5-(2-methylbenzyl)octahydro-cyclopenta[c]pyrrol-5-ol], the IC50 under setting [1] was determined as 34.9 nM.

On to `Cc1ccc(C[C@]2(O)C[C@H]3CN(CC(=O)c4ccc(O)cc4)C[C@H]3C2)cc1` [Example 179], for which, under setting [2], the IC50 is less than 100 nM.

The compound `Cc1cc(F)ccc1C[C@]1(O)C[C@H]2CN(CC(O)c3ccc(O)cc3)C[C@H]2C1` (mixture of isomers) [Example 254, rac-(3aR,5r,6aS)-5-(4-fluoro-2-methylbenzyl)-2-(2-hydroxy-2-(4-hydroxyphenyl)ethyl) octahydrocyclopenta[c] pyrrol-5-ol] registered an IC50 under setting [1] of 42.5 nM.

Consider `Cc1ccccc1[C@]1(O)C[C@H]2CN(C(=O)Nc3cccc(Cl)c3)C[C@H]2C1` [Example 11], for which, under setting [2], the IC50 was greater than 10000 nM.

On to `COc1cccc(NC(=O)N2C[C@@H]3C[C@@](O)(c4ccccc4)C[C@@H]3C2)c1` [Example 7], for which the IC50 was greater than 10000 nM under setting [2] and no less than 10000 nM under setting [1].

Under setting [1], `Oc1ccc(C(O)CN2C[C@H]3C[C@H](Cc4ccccc4)C[C@H]3C2)cc1F` (mixture of isomers) [Example 302, rac-4-{2-[(3aR,5R,6aS)-5-benzyl-octahydrocyclopenta[c]pyrrol-2-yl]-1-hydroxyethyl}-2-fluorophenol] had an IC50 of 20.1 nM.
